In ChEMBL document CHEMBL4825771 (ACS Med Chem Lett, 2021) one finds half-life, microsomal CLint and EC50 data, which are given here for one molecule.

The nature of series [1]: Metabolic stability in human liver microsomes assessed as half life measured after 60 mins by LC-MS/MS analysis. In kind it is ADME, Microsome. On the technique in general: Liver microsomes are vesicles of endoplasmic reticulum, rich in cytochrome P450 enzymes.
A short description of series [2]: Metabolic stability in human liver microsomes assessed as intrinsic clearance measured after 60 mins by LC-MS/MS analysis. In kind it is ADME, Microsome. To be noted: read-out: CLH.
In series [3] the target is 5-hydroxytryptamine receptor 2A (Homo sapiens, UniProt P28223). The experiment in a line: Displacement of [3H]-ketanserin from human 5-HT2A receptor incubated for 90 mins by scintillation counting analysis. Background: In a radioligand displacement assay an active substance lowers the binding of a labelled ligand.
5-hydroxytryptamine receptor 2A, sequence (P28223 whole entry): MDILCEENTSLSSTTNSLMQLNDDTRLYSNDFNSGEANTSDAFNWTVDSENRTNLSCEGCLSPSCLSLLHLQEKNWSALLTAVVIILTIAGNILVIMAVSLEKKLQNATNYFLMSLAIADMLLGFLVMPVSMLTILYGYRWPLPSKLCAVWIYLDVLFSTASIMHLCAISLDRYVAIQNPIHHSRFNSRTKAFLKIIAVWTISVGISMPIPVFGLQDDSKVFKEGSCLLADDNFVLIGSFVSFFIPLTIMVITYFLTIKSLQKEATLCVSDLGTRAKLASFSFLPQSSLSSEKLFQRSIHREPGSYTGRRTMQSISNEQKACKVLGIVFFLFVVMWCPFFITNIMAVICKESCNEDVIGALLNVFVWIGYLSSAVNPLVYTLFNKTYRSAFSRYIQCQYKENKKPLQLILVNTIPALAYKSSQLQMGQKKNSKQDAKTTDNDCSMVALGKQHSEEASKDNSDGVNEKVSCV

On to `[2H]C([2H])([2H])N(C([2H])([2H])[2H])C([2H])([2H])C([2H])([2H])c1c[nH]c2cccc(OC(=O)CCCCCCCC/C=C\C/C=C\CCCCC)c12`, for which, in series [1], the half-life at 2 µM came to 2.23 h. The microsomal CLint in series [2] turned out to be 10.4 µL/min/mg. Besides, the response in series [3] was half-maximal at 965 nM (EC50).

The half-life is the time needed for the level to fall by half in the phase considered. A word on the EC50: it is the midpoint of the concentration-response curve. High values mean lower potency in that assay, low ones higher potency in that assay.
